Where two headings read alike, the source gives them in different places.
Columns and labels:
[1] = tested on: Zymomonas mobilis pyruvate decarboxylase (zmPDC); parameters: method as in PMID 19082157; conditions: cited from earlier work
[2] = target: T1, porcine PDHc E1 (Sus scrofa, UniProt F1SGH5+P29804); assay: Porcine PDHc-E1 inhibition, DCPIP reduction assay; format: biochemical; conditions: for inhibition at 50 µM: read-out: Inhibition (%) of PDH E1; for inhibition at 100 µM: read-out: Inhibition (%) of PDH E1 at [TPP] = 100 μM
T1 sequence (P29804 31-390): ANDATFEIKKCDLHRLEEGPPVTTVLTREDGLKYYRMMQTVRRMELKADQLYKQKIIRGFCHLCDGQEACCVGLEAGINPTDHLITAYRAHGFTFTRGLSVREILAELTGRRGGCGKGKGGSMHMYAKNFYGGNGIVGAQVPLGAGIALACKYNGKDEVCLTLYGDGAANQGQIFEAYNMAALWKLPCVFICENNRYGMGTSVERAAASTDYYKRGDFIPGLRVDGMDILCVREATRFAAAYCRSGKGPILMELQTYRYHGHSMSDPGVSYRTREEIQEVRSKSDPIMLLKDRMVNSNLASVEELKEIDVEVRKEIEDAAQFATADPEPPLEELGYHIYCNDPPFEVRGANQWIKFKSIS
T1 sequence (F1SGH5 32-360): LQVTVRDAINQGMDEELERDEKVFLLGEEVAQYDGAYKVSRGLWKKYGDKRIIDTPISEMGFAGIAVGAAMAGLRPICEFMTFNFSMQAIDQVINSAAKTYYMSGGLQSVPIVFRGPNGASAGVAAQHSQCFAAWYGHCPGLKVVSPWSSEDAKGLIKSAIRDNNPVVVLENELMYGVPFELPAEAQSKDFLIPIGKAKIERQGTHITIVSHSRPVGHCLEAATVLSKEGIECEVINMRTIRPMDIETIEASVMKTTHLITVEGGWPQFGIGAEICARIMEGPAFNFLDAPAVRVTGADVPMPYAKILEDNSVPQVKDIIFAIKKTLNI

[3] = target: T1, porcine PDHc E1; assay: Porcine PDHc-E1 inhibition, DCPIP reduction assay; format: biochemical; conditions: for IC50: [TPP] = 10 μM, mean ± SEM, read-out: IC50 PDH E1; for Ki: read-out: Ki PDH E1
[4] = tested on: P. falciparum 3D7 parasites expressing PfTPK-GFP; assay: Antiplasmodial activity against parasites overexpressing PfTPK-GFP; format: cell-based, Plasmodium falciparum; conditions: versus mock and wild-type parasites; presence or absence of thiamine (2.97 μM)
[5] = tested on: P. falciparum 3D7 (chloroquine-sensitive) strain; assay: In vitro antiplasmodial activity assay (SYBR-Safe; malstat for 15); format: cell-based, Plasmodium falciparum; conditions: for IC50: Plasmodium falciparum; for Effect of changing folic acid concentration on parasite sensitivity: […] versus 220 μM folic acid in medium
[6] = tested on: human foreskin fibroblast (HFF) cells; format: cell-based; conditions: for Cytotoxicity: human, 96 h; for Selectivity index: HFF cytotoxicity versus antiplasmodial IC50
Protocol: Cytotoxicity evaluation of selected compounds
Cytotoxicity testing of selected compounds was conducted using HFF cells (human foreskin fibroblasts) as described by Howieson et al. with some modifications.10 Briefly, the HFF cells were seeded in 96- […]
Cycloheximide (10 µM; a protein synthesis inhibitor) was used as a control to indicate complete inhibition of HFF cell proliferation. Plates were […]
A sample of the supernatant
(150 µL) was then carefully aspirated from each well and discarded. The plates were then stored at - 80 °C. SYBR-Safe assay was used to measure cell proliferation. Briefly, the plates were thawed, SYBR-Safe lysis solution (150 µL) was added to each well and mixed via pipetting to ensure the HFF cells were detached from the plate and lysed. The plates were then processed as described for the […]
Fig. S7. […] Data are averaged […]
from three independent experiments, each carried out in triplicate. Error bars represent SEM and, where not visible, are smaller than the symbols. […]
10Howieson, V.M.; Tran, E.; Hoegl, A.; Fam, H.L.; Fu, J.; Sivonen, K.; Li, X.X.; Auclair, K.; Saliba, K.J. Triazole substitution of a labile amide bond […]

[7] = tested on: P. falciparum; parameters: method as in earlier work; conditions: ChEMBL; read-out: IC50 against P. falciparum; cited from earlier work
[8] = target: pig heart pyruvate dehydrogenase; parameters: method as in PMID 183746; conditions: read-out: KD for TPP in pig heart pyruvate dehydrogenase; cited from earlier work
[9] = 3D7, read-out: Antiplasmodial IC50, 2.97 μM thiamine
[10] = 3D7, read-out: Antiplasmodial IC50, 297 μM thiamine
[11] = 3D7, read-out: Antiplasmodial IC50, thiamine free
[12] = 3D7, medium with 2.97 μM thiamine, ± SEM, read-out: Antiplasmodial IC50, 2.97 μM thiamine
[13] = 3D7, medium with 297 μM thiamine, ± SEM, read-out: Antiplasmodial IC50, 297 μM thiamine
[14] = 3D7, thiamine-free medium, ± SEM, three independent experiments, read-out: Antiplasmodial IC50, thiamine free

## Cc1ncc(Cn2cc(CCO)nn2)c(N)n1 [Compound 6, reference compound]
[1]
  Binding to zmPDC, times weaker than TPP: about 1000 times
[2]
  inhibition at 50 µM: 60 ± 7%
  inhibition at 100 µM: 35 ± 6%

## Cc1ncc(Cn2cc(CCOP(=O)(O)OP(=O)(O)O)nn2)c(N)n1 [Compound 7]
[1]
  Binding to zmPDC, times tighter than TPP: about 10 000 times

## Cc1ncc(Cn2cc(CCOC(=O)c3ccccc3)nn2)c(N)n1 [Compound 12a]
[3]
  IC50: 20 ± 3 µM
  Ki: 0.1 ± 0.015 µM
[4]
  Effect of PfTPK overexpression on parasite sensitivity: no effect
[2]
  inhibition at 50 µM: 72 ± 3%
  inhibition at 100 µM: 44 ± 4%
[5]; [9]
  IC50: 136 ± 18 µM
[5]; [10]
  IC50: > 200 µM
[5]; [11]
  IC50: 128 ± 13 µM
[6]
  Cytotoxicity: >200 µM

## Cc1ncc(Cn2cc(CCOC(=O)c3ccc(Cl)cc3)nn2)c(N)n1 [Compound 12b]
[2]
  inhibition at 50 µM: 81 ± 2%
  inhibition at 100 µM: 56 ± 3%
[5]; [9]
  IC50: 125 ± 22 µM
[5]; [10]
  IC50: 122 ± 6 µM
[5]; [11]
  IC50: 107 ± 16 µM

## Cc1ncc(Cn2cc(CCOC(=O)c3cccc(Cl)c3)nn2)c(N)n1 [Compound 12c]
[4]
  Effect of PfTPK overexpression on parasite sensitivity: no effect
[2]
  inhibition at 50 µM: 72 ± 3%
  inhibition at 100 µM: 48 ± 3%
[5]; [12]
  IC50: 62 ± 17 µM
[5]; [13]
  IC50: 79 ± 5 µM
[5]; [14]
  IC50: 63 ± 15 µM
[6]
  Selectivity index: >3.2
  Cytotoxicity: >200 µM

## Cc1ncc(Cn2cc(CCOC(=O)c3ccccc3Cl)nn2)c(N)n1 [Compound 12d]
other
  melting point: 184 to 185 °C
[2]
  inhibition at 50 µM: 61 ± 3%
  inhibition at 100 µM: 38 ± 3%
[5]; [12]
  IC50: 347 ± 20 µM
[5]; [13]
  IC50: 343 ± 33 µM
[5]; [14]
  IC50: 339 ± 31 µM

## Cc1ncc(Cn2cc(CCOC(=O)c3ccc(Br)cc3)nn2)c(N)n1 [Compound 12e]
[2]
  inhibition at 50 µM: 73 ± 2%
  inhibition at 100 µM: 46 ± 5%
[5]; [12]
  IC50: 85 ± 4 µM
[5]; [13]
  IC50: 82 ± 8 µM
[5]; [14]
  IC50: 75 ± 6 µM

## Cc1ncc(Cn2cc(CCOC(=O)c3ccc([N+](=O)[O-])cc3)nn2)c(N)n1 [Compound 12f]
[2]
  inhibition at 50 µM: 55 ± 5%
  inhibition at 100 µM: 40 ± 8%
[5]; [12]
  IC50: > 25 µM
[5]; [13]
  IC50: > 25 µM
[5]; [14]
  IC50: > 25 µM

## Cc1ncc(Cn2cc(CCOC(=O)c3cccc([N+](=O)[O-])c3)nn2)c(N)n1 [Compound 12g]
[3]
  IC50: 36 ± 4 µM
  Ki: 0.182 ± 0.02 µM
other
  melting point: 188 to 189 °C
[2]
  inhibition at 50 µM: 56 ± 5%
  inhibition at 100 µM: 38 ± 5%
[5]; [9]
  IC50: 139 ± 9 µM
[5]; [10]
  IC50: 143 ± 10 µM
[5]; [11]
  IC50: 135 ± 15 µM

## Cc1ncc(Cn2cc(CCOc3ccc([N+](=O)[O-])cc3)nn2)c(N)n1 [Compound 13a]
[2]
  inhibition at 50 µM: 75 ± 3%
  inhibition at 100 µM: 53 ± 4%
[5]; [12]
  IC50: > 200 µM
[5]; [13]
  IC50: > 200 µM
[5]; [14]
  IC50: 168 ± 26 µM

## Cc1ncc(Cn2cc(CCO)nn2)c(NCc2ccc(Br)cc2)n1 [Compound 15]
[3]
  Inhibitory activity against porcine PDHc E1: none
[4]
  Effect of PfTPK overexpression on parasite sensitivity: no effect
[2]
  inhibition at 50 µM: 0%
[5]; 3D7, read-out: Antiplasmodial IC50 (text, thiamine concentration not specified)
  IC50: ~2 µM
[5]; [12]
  IC50: 2.3 ± 0.1 µM
[5]; [13]
  IC50: 2.7 ± 0.01 µM
[5]; [14]
  IC50: 2.2 ± 0.2 µM
[5]
  Effect of changing folic acid concentration on parasite sensitivity: no difference
[6]
  Selectivity index: 45
  Cytotoxicity: 98 ± 7 µM

## C=CCc1cnc(C)nc1NCc1ccccc1 [Compound 16]
[7]
  IC50: 18.5 µM

## Cc1ncc(C[n+]2csc(CCO[P@](=O)(O)OP(=O)(O)O)c2C)c(N)n1 [TPP, thiamine pyrophosphate]
[8]
  Kd: 0.05 ± 0.01 µM
[1]; read-out: KD of TPP, zmPDC
  Kd: ~0.35 µM

## Cc1ncc(C[n+]2csc(CCO)c2C)c(O)n1 [oxythiamine, reference compound]
[4]
  Effect of PfTPK overexpression on parasite sensitivity: increased the sensitivity

## COc1ncnc(NS(=O)(=O)c2ccc(N)cc2)c1OC [sulfadoxine, reference compound]
[5]
  Effect of changing folic acid concentration on parasite sensitivity: diminished

From paper PMC9298186, “Thiamine analogues as inhibitors of pyruvate dehydrogenase and discovery of a thiamine analogue with non-thiamine related antiplasmodial activity” (RSC Medicinal Chemistry, 2022)
